Measured values as given in patent publication USRE49687E1, “Thienopyrimidine and thienopyridine compounds and methods of use thereof” (The Regents of The University of Michigan, priority 2014, dated 2023).

What follows are compounds tested against T1, menin-MLL interaction (Homo sapiens, UniProt O00255) (assay: Fluorescence polarization (FP) competition assay of the menin-MLL interaction). Conditions: inhibition of the menin-MLL interaction; read-out: IC50 values for Table 1 inhibitors of menin.
T1 sequence (O00255 1-610): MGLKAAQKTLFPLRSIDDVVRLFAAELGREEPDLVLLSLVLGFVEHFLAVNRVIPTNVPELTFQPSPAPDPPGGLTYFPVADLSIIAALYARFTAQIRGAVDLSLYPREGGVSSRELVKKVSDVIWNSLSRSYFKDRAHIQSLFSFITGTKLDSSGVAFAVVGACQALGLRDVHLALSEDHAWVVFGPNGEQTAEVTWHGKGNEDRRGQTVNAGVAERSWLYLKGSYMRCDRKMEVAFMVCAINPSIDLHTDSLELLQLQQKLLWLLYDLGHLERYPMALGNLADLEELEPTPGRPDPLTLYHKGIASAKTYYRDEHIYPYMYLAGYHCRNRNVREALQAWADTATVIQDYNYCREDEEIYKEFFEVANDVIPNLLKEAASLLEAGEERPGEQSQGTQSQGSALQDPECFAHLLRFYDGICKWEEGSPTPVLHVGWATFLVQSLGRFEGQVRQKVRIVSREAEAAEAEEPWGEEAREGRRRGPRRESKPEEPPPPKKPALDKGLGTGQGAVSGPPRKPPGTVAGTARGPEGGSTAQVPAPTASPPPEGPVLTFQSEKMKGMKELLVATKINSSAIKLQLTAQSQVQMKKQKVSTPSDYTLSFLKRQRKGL
Format: binding

IC50 | SMILES
100 to 1000 nM | C=CC(=O)Nc1cn(CCn2c(C#N)cc3c(C)c(CN4CCC(Nc5ncnc6sc(CC(F)(F)F)cc56)CC4)ccc32)cn1 [Compound 192]
< 30 nM | C=CC(=O)Nc1ccc(CCn2c(C#N)cc3c(C)c(CN4CCC(Nc5ncnc6sc(CC(F)(F)F)cc56)CC4)ccc32)cc1S(C)(=O)=O [Compound 105]
< 30 nM | CCC(=O)Nc1ccc(CCn2c(C#N)cc3c(C)c(CN4CCC(Nc5ncnc6sc(CC(F)(F)F)cc56)CC4)ccc32)cc1 [Compound 102]
< 30 nM | C=CC(=O)Nc1ccc(C(O)Cn2c(C#N)cc3c(C)c(CN4CCC(Nc5ncnc6sc(CC(F)(F)F)cc56)CC4)ccc32)cc1 (stereo not drawn) [Compound 101]
< 30 nM | C=CC(=O)N[C@@H]1CCN(CCn2c(C#N)cc3c(C)c(CN4CCC(Nc5ncnc6sc(CC(F)(F)F)cc56)CC4)ccc32)C1 [Compound 32]
30 to 100 nM | C=CC(=O)N1CCC2(CN(CCn3c(C#N)cc4c(C)c(CN5CCC(Nc6ncnc7sc(CC(F)(F)F)cc67)CC5)ccc43)C2)C1 [Compound 176]
< 30 nM | C=CC(=O)N[C@H]1CCN(CCn2c(C#N)cc3c(C)c(CN4CCC(Nc5ncnc6sc(CC(F)(F)F)cc56)CC4)ccc32)C1 [Compound 31]
30 to 100 nM | Cc1c(CN2CCC(Nc3ncnc4sc(CC(F)(F)F)cc34)CC2)ccc2c1cc(C#N)n2CCc1ccc(N)c(S(C)(=O)=O)c1 [Compound 104]

Further lines, the compound ahead of its results:

SMILES | IC50
C=CC(=O)Nc1ccc(C(C)(O)Cn2c(C#N)cc3c(C)c(CN4CCC(Nc5ncnc6sc(CC(F)(F)F)cc56)CC4)ccc32)cc1 (stereo not drawn) [Compound 115] | 30 to 100 nM
C=CC(=O)N1CCCN(CCn2c(C#N)cc3c(C)c(CN4CCC(Nc5ncnc6sc(CC(F)(F)F)cc56)CC4)ccc32)CC1 [Compound 66] | < 30 nM
C=CC(=O)N1CCC(Cn2c(C#N)cc3c(C)c(CN4CCC(Nc5ncnc6sc(CC(F)(F)F)cc56)CC4)ccc32)CC1 [Compound 233] | 30 to 100 nM
CCC(=O)Nc1ccc(CCn2c(C#N)cc3c(C)c(CN4CCC(Nc5ncnc6sc(CC(F)(F)F)cc56)CC4)ccc32)cn1 [Compound 254] | 100 to 1000 nM
C=CC(=O)NC1CN(CCn2c(C#N)cc3c(C)c(CN4CCC(Nc5ncnc6sc(CC(F)(F)F)cc56)CC4)ccc32)C1 [Compound 28] | 30 to 100 nM
C=CC(=O)NC1CCN(CCn2c(C#N)cc3c(C)c(CN4CCC(Nc5ncnc6sc(CC(F)(F)F)cc56)CC4)ccc32)CC1 [Compound 25] | 30 to 100 nM
C=CS(=O)(=O)Nc1ccc(CCn2c(C#N)cc3c(C)c(CN4CCC(Nc5ncnc6sc(CC(F)(F)F)cc56)CC4)ccc32)cc1 [Compound 231] | < 30 nM
C=CS(=O)(=O)NC1CCN(CCn2c(C#N)cc3c(C)c(CN4CCC(Nc5ncnc6sc(CC(F)(F)F)cc56)CC4)ccc32)CC1 [Compound 232] | < 30 nM
C=CC(=O)N1CCC(Cn2c(C#N)cc3c(C)c(CN4CCC(Nc5ncnc6sc(CC(F)(F)F)cc56)CC4)ccc32)C1 (stereo not drawn) [Compound 208] | 30 to 100 nM
Cc1c(CN2CCC(Nc3ncnc4sc(CC(F)(F)F)cc34)CC2)ccc2c1cc(C#N)n2CCc1cccc(P(C)(C)=O)c1 [Compound 204] | 30 to 100 nM
C=CC(=O)NCCC(O)(CO)Cn1c(C#N)cc2c(C)c(CN3CCC(Nc4ncnc5sc(CC(F)(F)F)cc45)CC3)ccc21 (stereo not drawn) [Compound 11] | < 30 nM
[2H]C([2H])=C([2H])C(=O)Nc1ccc(CCn2c(C#N)cc3c(C)c(CN4CCC(Nc5ncnc6sc(CC(F)(F)F)cc56)CC4)ccc32)cc1 [Compound 241] | 30 to 100 nM
Cc1c(CN2CCC(Nc3ncnc4sc(CC(F)(F)F)cc34)CC2)ccc2c1cc(C#N)n2CCc1ccc(P(C)(C)=O)cc1 [Compound 202] | 30 to 100 nM
C=CC(=O)Nc1ccc(CCn2c(C#N)cc3c(C)c(CN4CCC(Nc5ncnc6sc(CC(F)(F)F)cc56)CC4)ccc32)cc1P(=O)(CC)CC [Compound 203] | < 30 nM
C=CS(=O)(=O)N1C2CCC1CN(CCn1c(C#N)cc3c(C)c(CN4CCC(Nc5ncnc6sc(CC(F)(F)F)cc56)CC4)ccc31)C2 [Compound 23] | < 30 nM
C=CS(=O)(=O)N1CCN(CCn2c(C#N)cc3c(C)c(CN4CCC(Nc5ncnc6sc(CC(F)(F)F)cc56)CC4)ccc32)C[C@@H]1C [Compound 230] | < 30 nM
